# Read-outs that look alike come from different tables or passages of the source. Residues, ends and D or L forms follow the SMILES beside them.
# B1: TRAIL: tumor necrosis factor-related apoptosis-inducing ligand, member of the TNF superfamily (protein, UniProt P50591 1-281, looked up)
# Tumor necrosis factor ligand …: MAMMEVQGGPSLGQTCVLIVIFTVLLQSLCVAVTYVYFTNELKQMQDKYSKSGIACFLKEDDSYWDPNDEESMNSPCWQVKWQLRQLVRKMILRTSEETISTVQEKQQNISPLVRERGPQRVAAHITGTRGRSNTLSSPNSKNEKALGRKINSWESSRSGHSFLSNLHLRNGELVIHEKGFYYIYSQTYFRFQEEIKENTKNDKQMVQYIYKYTSYPDPILLMKSARNSCWSKDAEYGLYSIYQGGIFELKENDRIFVSVTNEHLIDMDHEASFFGAFLVG
# What was measured:
# [1] = biological target: BIR-3 domain of cIAP-1 (Homo sapiens, UniProt Q13490); assay: Fluorescence polarization binding assay, cIAP-1 BIR-3 domain
# Sequence of BIR-3 domain of cIAP-1 (Homo sapiens, UniProt Q13490) (Q13490 266-352 limits assumed): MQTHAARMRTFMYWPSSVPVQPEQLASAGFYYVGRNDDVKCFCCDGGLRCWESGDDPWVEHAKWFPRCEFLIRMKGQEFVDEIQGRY
# Description: (§6) IC50 values (Table I) were determined from the plot using nonlinear least-squares analysis using GraphPad Prism.
# (§7) We have utilized the specificity of this IAP binding motif in a fluorescence polarization assay to measure the binding affinities for cIAP-1 Antagonists. The fluorescence polarization assay consists of FP peptide {Sri: What is “FP Peptide”?}, and the recombinant BIR3 domain of the XIAP protein. The FP peptide and mimics of cIAP-1 N-terminus compete for binding to the BIR3 protein. […] If a peptide, peptidomimetic, or other small molecule being tested is a competitor, then it succeeds in displacing the FP peptide, resulting in a low mP value. Molecules that compete with the FP peptide can be titrated and IC50 values determined (GraphPad Prism nonlinear regression curve-fitting program) by plotting mp value as the direct measure of fraction bound vs. the log of the compound concentration.
# [2] = test system: BIR-3 domain of cIAP-1; assay: as above; settings: cIAP-1 relative to XIAP
# Description: as §6, §7
# [3] = test system: OVCAR-3 cell line; assay: Synergistic toxicity with SN-38, MTT matrix; assay type: cell-based
# Excerpt: MTT assays were setup by testing a matrix of concentrations of both drugs.
# [4] = test system: SK-OV-3 cells; assay: MTT cell growth assay in SK-OV-3 ovarian cancer cells; assay type: cell-based; settings: Homo sapiens
# Description: The MTT assay is an example of an assay that has been used for measuring cell growth as previously described (Hansen, M. B., Nielsen, S. E., and Berg, K. (1989) J. Immunol. Methods 119, 203-210) and incorporated herein by reference in its entirety. Briefly, SK-OV-3 cells were seeded in 96-well plates in McCoy's medium containing 10% fetal bovine serum […] (10,000 per well) and incubated overnight at 37° C.
# μM) and the plates were incubated at 37° C. for an additional 72 hrs. This incubation time was optimal for measuring inhibitory effects of different analogs. 50 microliters of 5 mg/mL MTT reagent to each well was added and the plates were incubated at 37° C. for 3 hours. At the end of incubation period, 50 microliters of DMSO was added to each well to dissolve cells and the optical density (OD) of the wells was measured with a microplate reader (Victor^2 1420, Wallac, Finland) at 535 nm. Cell survival (CS) was calculated by the following equation:
# CS=(OD treated well/mean OD control wells)×100%.
# The EC50 (Table 1), defined as the drug concentration that results in 50% CS, was derived by calculating the point where the dose-response curve crosses the 50% CS point using GraphPad Prism.
# [5] = biological target: BIR-3 domain of XIAP (Homo sapiens, UniProt P98170); assay: Fluorescence polarization binding assay, XIAP BIR-3 domain
# Sequence of BIR-3 domain of XIAP (P98170 241-356 limits assumed): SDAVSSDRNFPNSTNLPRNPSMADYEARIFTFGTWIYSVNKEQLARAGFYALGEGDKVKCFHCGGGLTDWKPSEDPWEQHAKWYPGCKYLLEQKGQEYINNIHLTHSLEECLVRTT
# Description: as §6, §7
# [6] = biological target: T1, cIAP-1 (Homo sapiens, UniProt Q13490); assay: Western blot of cIAP-1 degradation in SKOV3 cells; assay type: cell-based; settings: SK-OV-3 cells, 20 hrs, absence of bortezomib
# T1 construct: endogenous in cells; host or cells: SKOV3 (SK-OV-3) cells
# T1 sequence (Q13490 whole entry): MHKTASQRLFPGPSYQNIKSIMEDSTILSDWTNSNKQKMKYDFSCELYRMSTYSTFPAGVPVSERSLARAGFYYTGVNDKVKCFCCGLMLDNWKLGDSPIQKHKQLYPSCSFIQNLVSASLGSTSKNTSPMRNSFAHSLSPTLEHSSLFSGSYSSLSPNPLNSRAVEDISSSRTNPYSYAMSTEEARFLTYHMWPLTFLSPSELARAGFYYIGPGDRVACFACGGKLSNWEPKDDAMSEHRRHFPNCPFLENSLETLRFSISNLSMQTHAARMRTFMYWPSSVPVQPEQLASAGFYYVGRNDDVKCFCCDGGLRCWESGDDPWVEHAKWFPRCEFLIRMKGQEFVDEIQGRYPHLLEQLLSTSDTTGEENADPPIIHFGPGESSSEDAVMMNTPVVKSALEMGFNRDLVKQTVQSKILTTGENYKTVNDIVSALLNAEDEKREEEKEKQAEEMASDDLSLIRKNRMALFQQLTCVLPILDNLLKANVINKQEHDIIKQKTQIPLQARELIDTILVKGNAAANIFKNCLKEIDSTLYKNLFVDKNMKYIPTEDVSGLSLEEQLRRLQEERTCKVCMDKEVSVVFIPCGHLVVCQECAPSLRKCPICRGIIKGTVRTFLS
# Description: (§1) SKOV3 cells were passed into six 60×15 mm tissue culture dishes 2 days before experiment. Cells appeared to be ˜80% confluent at time of harvest. […] A 10-fold dilution of this solution into medium A gave the 100 nM working solution.
# (§2) Western blot analysis was carried out using standard technique. Briefly, cells were lysed using the MPER mammalian cell lysis solution (Bio-Rad #78503) to which 10 μl/mL of a 100× solution of HALT protease inhibitor cocktail (Bio-Rad #78410) has been added. To each dish of cells, 200 μl of the lysis solution plus protease inhibitors is added. The cells in each dish are scraped using a cell scraper and allowed to incubate with the reagent for 10 minutes. The lysates were transferred to pre-chilled microfuge tubes and spun for 20 minutes at 15,000×g at 4° C. The supernatant was transferred to a clean, chilled microfuge tube.
# (§3) Next, the total protein content of the lysates was determined using the BCA Protein Assay according to the manufacturer's protocol and using interpolation from a standard curve generated with BSA.
# (§4) The samples were normalized for protein content during preparation for gel electrophoresis. The samples were prepared using 2× Laemmli Sample buffer to which 200 mM DTT was added. […]
# [7] = biological target: T2, XIAP (Homo sapiens, UniProt P98170); assay: Western blot of XIAP degradation in SKOV3 cells; assay type: cell-based; settings: SK-OV-3 cells, 20 hrs, absence of bortezomib
# T2 construct: SKOV3 cells were passed into six 60×15 mm tissue culture dishes; endogenous in cells; host or cells: SKOV3 (SK-OV-3) cells
# T2 sequence (P98170 whole entry): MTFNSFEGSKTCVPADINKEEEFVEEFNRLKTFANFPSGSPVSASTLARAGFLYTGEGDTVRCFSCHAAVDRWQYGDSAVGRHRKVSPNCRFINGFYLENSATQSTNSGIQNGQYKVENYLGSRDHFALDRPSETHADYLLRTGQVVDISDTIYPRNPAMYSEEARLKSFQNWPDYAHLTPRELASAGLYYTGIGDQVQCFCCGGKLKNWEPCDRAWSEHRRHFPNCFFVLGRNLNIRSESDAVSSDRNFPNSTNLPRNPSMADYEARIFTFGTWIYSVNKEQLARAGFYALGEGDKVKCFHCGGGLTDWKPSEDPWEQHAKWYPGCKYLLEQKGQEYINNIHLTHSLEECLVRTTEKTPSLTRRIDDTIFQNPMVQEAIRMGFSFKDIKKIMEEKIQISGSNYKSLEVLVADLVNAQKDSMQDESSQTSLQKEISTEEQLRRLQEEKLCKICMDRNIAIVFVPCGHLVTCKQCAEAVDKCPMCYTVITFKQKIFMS
# Description: as §1, §2, §3, §4
# [8] = test system: SK-OV-3^S cells; assay: TRAIL sensitivity MTT assay in parental SK-OV-3 cells; assay type: cell-based
# Description: (§5) Another unexpected observation we made was with respect to TRAIL sensitivity. IAP Antagonist-resistant SK-OV-3 cells (SK-OV-3^R) were generated by exposing the parental SK-OV-3 cells (SK-OV-3^S) to an IAP antagonist compound at a concentration that kills 95% of cells. Three days later, viable cells were transferred to a fresh flask and grown to confluency. Two weeks later, the cells were tested for IAP Antagonist sensitivity in an MTT assay as described above and as expected, found these cells to be resistant to IAP Antagonist cytotoxicity.
# [9] = test system: SK-OV-3^R cells; assay: TRAIL sensitivity MTT assay in IAP Antagonist-resistant SK-OV-3 cells; assay type: cell-based
# Description: as §5
# [10] = SK-OV-3 cells, 72 hrs, read-out: MTT EC50
Molecule,IC50 [1],"EC50 [4, 10]",IC50 [5],other results
CC(C)[C@H](NC(=O)CN)C(=O)N1C[C@@H](Oc2ccccc2)C[C@H]1Cc1coc2ccccc12 [Compound I],< 0.01 µM,< 0.01 µM,> 0.1 µM,"IC50 ([1]; read-out: IC50 (cIAP-1), Table 10): < 0.01 µM; binding to cIAP-1 more tightly than to XIAP [2]: 117 fold; synergistic toxicity with SN-38 (synergistic volume) [3]: comparable; EC50 ([4]; SK-OV-3, Table 10, read-out: MTT (SKOV-3)): < 0.01 µM; IC50 ([5]; read-out: IC50 (XIAP), Table 10): > 0.1 µM"
CCC(C)[C@H](NC(=O)[C@H](C)NC)C(=O)N1CCC[C@H]1Cc1c2n(c3ccc(F)cc13)CCn1c-2c(C[C@@H]2CCCN2C(=O)[C@@H](NC(=O)[C@H](C)NC)C(C)CC)c2cc(F)ccc21 (stereo partly drawn) [A],< 0.01 µM,< 0.01 µM,0.01 to 0.1 µM,
CN[C@@H](C)C(=O)N[C@H](C(=O)N1CCC[C@H]1Cc1c[nH]c2ccc(C)cc12)[C@@H](C)O [C],< 0.01 µM,< 0.01 µM,> 0.1 µM,
CN[C@@H](C)C(=O)N[C@H](C(=O)N1CCC[C@H]1Cc1c[nH]c2ccc(C)cc12)C(C)C [G],< 0.01 µM,0.01 to 0.1 µM,0.01 to 0.1 µM,
CN[C@@H](C)C(=O)N[C@H](C(=O)N1C[C@@H](OC(C)=O)C[C@H]1Cc1c[nH]c2ccccc12)[C@@H](C)O [D],> 1 µM,,> 1 µM,
CN[C@@H](C)C(=O)N[C@H](C(=O)N1CCC[C@H]1Cc1cn(CCOCCn2cc(C[C@@H]3CCCN3C(=O)[C@@H](NC(=O)[C@H](C)NC)C3CCCCC3)c3ccccc32)c2ccccc12)C1CCCCC1 [K],0.01 to 0.1 µM,0.01 to 0.1 µM,> 0.1 µM,
CN[C@@H](C)C(=O)N[C@H](C(=O)N1CCC[C@H]1Cc1c(-c2ccc(-c3c(C[C@@H]4CCCN4C(=O)[C@@H](NC(=O)[C@H](C)NC)C(C)(C)C)c4ccc(F)cc4n3CCO)cc2)n(CCO)c2cc(F)ccc12)C(C)(C)C [N],0.01 to 0.1 µM,< 0.01 µM,0.01 to 0.1 µM,
"CC(C)[C@H](NC(=O)[C@H](C)N)C(=O)N1CCC[C@H]1C(=O)N[C@@H](Cc1ccccc1)C(=O)O [AVPF, reference compound] (H-AVPF-OH)",0.01 to 0.1 µM,,,
CN[C@@H](C)C(=O)N[C@H](C(=O)N1C[C@@H](OC(C)=O)C[C@H]1Cc1c[nH]c2ccccc12)C(C)C [F],< 0.01 µM,0.01 to 0.1 µM,0.01 to 0.1 µM,
CN[C@@H](C)C(=O)N[C@H](C(=O)N1CCC[C@H]1Cc1c(-c2ccc(C(=O)OC)cc2)n(CCOCCOCCOC)c2cc(F)ccc12)C(C)(C)C [P],0.01 to 0.1 µM,< 0.01 µM,0.01 to 0.1 µM,
CN[C@@H](C)C(=O)N[C@H](C(=O)N1C[C@@H](OC(C)=O)C[C@H]1Cc1c[nH]c2ccccc12)C(C)(C)C [E],< 0.01 µM,0.01 to 0.1 µM,> 0.1 µM,
CN[C@@H](C)C(=O)N[C@H](C(=O)N1CCC[C@H]1Cc1c(-c2ccc(F)cc2)n(CCOCCOCCOC)c2cc(F)ccc12)C(C)(C)C [Q],0.01 to 0.1 µM,< 0.01 µM,0.01 to 0.1 µM,cIAP-1 protein by western blot [6]: complete disappearance; XIAP protein by western blot [7]: complete disappearance
CC(C)[C@@H](NC(=O)[C@@H](C)N)C(=O)N1CCC[C@@H]1Cc1c(-c2ccc(-c3oc4ccccc4c3C[C@H]3CCCN3C(=O)[C@H](NC(=O)[C@@H](C)N)C(C)C)cc2)[nH]c2ccccc12 [L],0.01 to 0.1 µM,< 0.01 µM,> 0.1 µM,
CN[C@@H](C)C(=O)N[C@H](C(=O)N1CCC[C@H]1Cc1c(-c2ccc(N3CCOCC3)cc2)n(CCOCCOCCOC)c2cc(F)ccc12)C(C)(C)C [R],0.01 to 0.1 µM,0.01 to 0.1 µM,0.01 to 0.1 µM,
CC(C)[C@H](NC(=O)[C@H](C)N)C(=O)N1CCC[C@H]1Cc1c(-c2ccc(-c3oc4ccccc4c3C[C@@H]3CCCN3C(=O)[C@@H](NC(=O)[C@H](C)N)C(C)C)cc2)[nH]c2ccccc12 [J],> 0.1 µM,> 0.1 µM,> 0.1 µM,
CN[C@@H](C)C(=O)N[C@H](C(=O)N1C[C@@H](O)C[C@H]1Cc1c(-c2ccc(-c3[nH]c4ccccc4c3C[C@@H]3C[C@H](O)CN3C(=O)[C@@H](NC(=O)[C@H](C)NC)C(C)(C)C)cc2)[nH]c2ccccc12)C(C)(C)C [M],0.01 to 0.1 µM,0.01 to 0.1 µM,0.01 to 0.1 µM,
CN[C@@H](C)C(=O)N[C@H](C(=O)N1CCC[C@H]1Cc1c(-c2ccc(-c3c(C[C@@H]4CCCN4C(=O)[C@@H](NC(=O)[C@H](C)NC)C(C)C)c4ccc(F)cc4n3CCOC(C)=O)cc2)n(CCOC(C)=O)c2cc(F)ccc12)C(C)C [O],> 1 µM,> 1 µM,> 1 µM,
B1,,,,TRAIL sensitivity [8]: resistant to TRAIL; TRAIL sensitivity [9]: sensitive to TRAIL

# From patent US20130040893A1, “TREATMENT OF PROLIFERATIVE DISORDERS” (TETRALOGIC PHARMACEUTICALS CORPORATION, priority 2005, published 2013)
